From doi:10.1101/2022.02.21.481260v1 (biorxiv, 2022)
pIC50: −log10 of the molar value.

Target: T1, hFAP (recombinant human Fibroblast Activation Protein) (Homo sapiens, UniProt Q12884)
T1 sequence (Q12884 26-760 limits assumed): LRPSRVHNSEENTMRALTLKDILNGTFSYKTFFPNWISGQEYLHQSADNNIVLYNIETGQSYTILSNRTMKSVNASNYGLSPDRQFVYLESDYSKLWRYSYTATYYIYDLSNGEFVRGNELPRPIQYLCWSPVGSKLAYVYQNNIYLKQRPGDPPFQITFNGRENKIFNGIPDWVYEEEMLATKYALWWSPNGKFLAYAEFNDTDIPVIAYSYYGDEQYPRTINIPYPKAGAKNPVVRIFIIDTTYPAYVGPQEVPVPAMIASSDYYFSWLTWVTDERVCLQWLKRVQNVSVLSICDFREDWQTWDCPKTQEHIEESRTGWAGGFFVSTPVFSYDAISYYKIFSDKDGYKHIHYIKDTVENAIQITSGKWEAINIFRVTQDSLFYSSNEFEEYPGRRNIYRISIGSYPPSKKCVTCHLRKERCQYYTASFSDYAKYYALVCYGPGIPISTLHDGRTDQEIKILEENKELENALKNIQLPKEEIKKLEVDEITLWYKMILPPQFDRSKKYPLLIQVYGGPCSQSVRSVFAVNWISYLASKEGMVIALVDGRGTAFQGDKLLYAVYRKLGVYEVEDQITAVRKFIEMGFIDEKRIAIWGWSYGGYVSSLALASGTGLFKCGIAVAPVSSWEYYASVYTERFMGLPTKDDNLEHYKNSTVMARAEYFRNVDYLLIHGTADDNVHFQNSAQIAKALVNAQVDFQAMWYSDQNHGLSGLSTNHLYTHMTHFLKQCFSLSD
Test: biochemical

pIC50: 9.40
SMILES: N#C[C@@H]1CC(F)(F)CN1C(=O)CNC(=O)c1ccnc2c(NC(=O)CCC(=O)NCCNC(=O)CCC(C(=O)O)N3CCN(CC(=O)O)CCN(CC(=O)O)CCN(CC(=O)O)CC3)cccc12 (stereo partly shown) [compound 1, OncoFAP-DOTAGA]
